Data taken from paper PMC10194981, “Chemosensory protein regulates the behavioural response of Frankliniella intonsa and Frankliniella occidentalis to tomato zonate spot virus–Infected pepper (Capsicum annuum)” (PLOS Pathogens, 2023).

Tests used:
[1] = test system: OBP5 from Apolygus lucorum; set-up: method as in PMID 23665333; settings: cited from earlier work
[2] = test system: M. sexta larvae; set-up: method as in PMID 25261073; settings: cited from earlier work
[3] = test system: F. intonsa antennae; experiment: Electroantennogram (EAG) assay; set-up: species or system Frankliniella intonsa
Description: The FintCSP1, FintCSP2, FintOBP, FintOR, FoccCSP, and enhanced green fluorescent protein (EGFP) coding sequences were obtained from GenBank under accession numbers MT199111, MT211602, OK067245, MT211603, AEP27186.1, and U55761.1, respectively. Primers were designed using Primer Premier 5.0, and the T7 promoter sequence (5′-[…]-3′) was added to the 5′ end of each primer (S1 Table). DNA fragments containing T7 promoter sequences were amplified by PCR using pEASY-T1/target gene or pUC-EGFP (preserved in the laboratory) plasmid DNA as template. Then, a double-stranded RNA (dsRNA) was produced from each target gene using the HiScribe T7 Quick High Yield RNA Synthesis Kit (New England Biolabs) according to the manufacturer’s instructions. Six hundred 2-day-old female F. intonsa or two hundred 2-day-old female F. occidentalis adults were anesthetized using CO2 and microinjected with 40 nL (3 μg/μL) dsRNA (dsFintCSP1 dsFintCSP2, dsFintOBP, dsFintOR or dsFoccCSP or dsEGFP) using a CellTram Oil microinjector (Eppendorf, Hamburg, Germany). The injected thrips were kept on broad beans in an artificial climate incubator as described above and used in subsequent RNAi experiments. Three biological replicates were conducted for each treatment with each dsRNA.
At 24 h after dsRNA injection, the electrophysiological responses of F. intonsa antennae to six volatile components (i.e., m-cymene, cis-3-hexenal, (+)-2-carene, trans-2-hexenal, α-phellandrene, and α-humulene) or F. occidentalis antennae to cis-3-hexenal were recorded using EAG. Antennae of female adult thrips were cut off at the base, and the distal terminus was carefully removed. The tested compounds were dissolved in liquid paraffin, with pure liquid paraffin used as a negative control. An Ag-AgCl2 glass electrode and Kaissling electrode solution were used in the experiment according to Tian et al.. The base of the antenna was inserted into the glass capillary filled with electrode solution at the end of the reference electrode; the top of the antenna was connected to the glass capillary at the end of the recording electrode to ensure no bubbles in the glass capillary. After successful connection, the antennae were stimulated with each chemical in the following order: liquid paraffin, volatile compounds, and liquid paraffin. Stimulus time was 0.2 s with each stimulus at 40 s intervals. At least 10 antennae were tested for each volatile compound. The EAG values to volatile compounds were calculated using the following equation: absolute value of EAG reaction = reaction value of the tested sample—average value of two control measurements.

[4] = target: FintCSP1-Val132Ala (Frankliniella intonsa, UniProt A0A891LVF4, V132A); experiment: Fluorescence (1-NPN) binding and competitive binding assay, FintCSP1 mutant (negative control residue)
FintCSP1-Val132Ala, sequence (A0A891LVF4 entry or part of it V132A): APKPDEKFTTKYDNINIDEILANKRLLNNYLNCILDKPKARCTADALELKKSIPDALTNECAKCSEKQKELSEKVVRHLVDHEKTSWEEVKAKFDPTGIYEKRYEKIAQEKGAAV
Description: (§1) The binding affinity of FintCSP1 and FoccCSP to the fluorescent probe N-phenyl-1-naphthylamine (1-NPN) was tested using a Spectramax M2 fluorescence spectrometer (Molecular Devices, USA) as reported previously. Volatile compounds and 1-NPN were first dissolved to a concentration of 1 mM in HPLC-grade methanol and dissolved to their indicated final concentration (2–20 μM) to titrate 2 μM protein solutions resuspended in 50 mM Tris-HCl (pH 7.4). The 1-NPN/FintCSP1 or 1-NPN/FoccCSP mixture was excited at 280 nm, and the emission spectra were recorded at 415 nm. The binding constants (Kd) of FintCSP1 or FoccCSP to 1-NPN were calculated by Scatchard analysis using Prism 5 software (GraphPad, La Jolla, CA, USA). Assuming a protein activity of 100% and that the volatile compound binds to the protein in a 1:1 ratio at saturation, the dissociation constants (Ki) of FintCSP1 or FoccCSP for each ligand were calculated according to the IC50 (the concentration when the ligand replaces 50% of the probe) value of the volatile compounds. The Ki values were calculated according to the following equation: Ki = [IC50]/(1 + [1-NPN]/K1-NPN), where [1-NPN] is the free concentration of 1-NPN, and K1-NPN is the Kd of the 1-NPN/FintCSP1 or 1-NPN/FoccCSP.
(§2) To verify the key amino acids of FintCSP1 and FoccCSP that bind to cis-3-hexenal, six amino acid residues of FintCSP1 were mutated (Lys26Ala, Phe27Ala, Thr28Ala, Glu67Ala, Ser84Ala, and the negative control residue Val132Ala) and nine amino acid residues of FoccCSP were mutated (Lys26Ala, Phe27Ala, Thr28Ala, Thr29Ala, Tyr31Ala, Asp64Ala, Glu67Ala, Gln87Ala, and the negative control residue Val132Ala) with the Fast Mutagenesis System Kit (Transgen Biotech, Beijing, China) using the pET-30a/FintCSP1 and pET-30a/FoccCSP plasmid DNA as template, respectively. […] After validation by sequencing, each recombinant variant protein was produced and purified as described above, and their binding affinity to cis-3-hexenal was measured as described above.

[5] = target: FintCSP1-Ser84Ala (Frankliniella intonsa, UniProt A0A891LVF4, S84A); experiment: Fluorescence (1-NPN) binding and competitive binding assay, FintCSP1 mutant
FintCSP1-Ser84Ala, sequence (A0A891LVF4 entry or part of it S84A): as the sequence (A0A891LVF4 entry or part of it V132A) above, with S65A, A113V counted along it
Description: as §1, §2

Which “binding to OBP5 (in words)” value [1] does the source give for `CC/C=C\CC=O` [cis-3-hexenal] here?
The value was “strongly binds”.

What about the “effect on M. sexta larvae (in words)” value [2] of the same molecule?
The value was “feeding stimulant”.

And the EAG peak amplitude ([3]; 10 mg/L in liquid paraffin, excised F. intonsa antennae)?
Its EAG peak amplitude is “–0.077 mV”.

And the “EAG response of FintCSP1-silenced antennae (in words)” value ([3]; dsFintCSP1-injected compared to dsEGFP-injected F. intonsa, 24 h after injection)?
Its value is “significantly lower response”.

And the IC50 [4]?
The IC50 was 39.24 ± 0.36 µM.

What about the Ki [4] of the same molecule?
Its Ki is 32.18 ± 0.29 µM.

And the IC50 [5]?
Its IC50 is 41.3 ± 3.96 µM.

What about the Ki [5] of the same molecule?
Its Ki is 29.7 ± 2.84 µM.
